In assay [1] the test system is experimental autoimmune neuritis (EAN) rat model. The experiment in a line: Therapeutic administration, pain threshold of EAN rat model. Type of assay: in vivo. To be noted: therapeutic administration into the subarachnoid space from thirteen days after immunization (average manifestation score 2 or more); male LEW/CrlCrlj rat; FIG. 3. The text has this:
(§1) The effect of P2X4 receptor antagonist on neuropathic pain was examined using an experimental autoimmune neuritis (EAN) rat model (Examples 3 and 4), which has been used as an experimental model for Guillain-Barré syndrome ([…]).
Six-week-old male LEW/CrlCrlj rat was acclimatized for about one week, and an indwelling polystyrene catheter with a 0.30 mm outside diameter was placed into the subarachnoid space. Three days or more after indwelling of the catheter for administration into the subarachnoid space, the rat was anesthetized with isoflurane, and an adjuvant or P2 peptide-adjuvant solution was administered by intradermal tale base injection in an amount of 80 μg/80 μL/rat. Micro Infusion Pump was simultaneously placed into the back of the rat, and administration of the vehicle into the subarachnoid space was initiated. After immunization, symptom was observed (Table 2), and change of pain threshold was observed.

Assay [2] has the same test system. The experiment in a line: Preventive administration, pain threshold of EAN rat model. Type of assay: in vivo. The settings on record: preventive continuous administration into the subarachnoid space by Micro Infusion Pump from immunization with P2 peptide-adjuvant; male LEW/CrlCrlj rat; FIG. 2.
Text: as §1
Six-week-old male LEW/CrlCrlj rat was acclimatized for about one week, and an indwelling polystyrene catheter with a 0.30 mm outside diameter was placed into the subarachnoid space. Three days or more after indwelling of the catheter for administration into the subarachnoid space, the rat was anesthetized with isoflurane, and an adjuvant or P2 peptide-adjuvant solution was administered by intradermal tale base injection in an amount of 80 μg/80 μL/rat. The compound A was continuously administered by Micro Infusion Pump (Primetech). The pump was placed at the same time of administration of P2 peptide-adjuvant.

For `O=C1CC(=O)N(c2cccc(-c3nnn[nH]3)c2)c2ccc3ccccc3c2N1.[K]` [Compound A, 5-[3-(1H-tetrazol-5-yl)phenyl]-1H-naphtho[1,2-b][1,4]diazepine-2,4(3H,5H)-dione potassium salt], the “influence on pain threshold (analgesic effect)” value in assay [1] is “significant analgesic effect on pain in later manifestation of the disease”. Moreover, the “influence on pain threshold (allodynia)” value in assay [2] is “suppress pains in initial and later manifestations of the disease”.

The values are drawn from patent US20190046539A1, “PROPHYLACTIC OR THERAPEUTIC AGENT FOR NEUROPATHIC PAIN ASSOCIATED WITH GUILLAIN-BARRE SYNDROME” (KYUSHU UNIVERSITY, priority 2011, published 2019).
